Laboratory results reported in patent US20050255538A1, “Methods for screening for AcrAB efflux pump inhibitors” (priority 2002, published 2005).

System: E. coli ΔemrE mutants
Test: Antimicrobial susceptibility assays of efflux pump deletion mutants
Assay type: cell-based, Escherichia coli
Settings: ΔemrE mutants in ΔacrAB ΔacrEF background vs parent
Procedure: The PCR mixtures contained 50 ng of E. coli chromosomal DNA, 40 pmol of each primer, 0.2 mM (each) deoxynucleoside triphosphate, 2 mM MgSO4 and 10% (vol/vol) dimethylsufoxide in 1× thermo reaction buffer (New England Biolabs, Mississauga, Ontario, Canada) and were heated for 5 min at 94° C. before the addition of 2 U of Vent DNA polymerase (New England Biolabs) per reaction. The reaction was then processed for 30 cycles of 40 sec: at 94° C., 40 sec at 56° C. and 40 sec at 72° C. before finishing with 10 min at 72° C. The PCR products to be used in each deletion were purified using a Qiaquick™ PCR purification kit (Qiagen Inc.), digested with BamHI and EcoRI or EcoRI and Sail as appropriate, and cloned into EcoRI-SalI-restricted pBluescript II SK(+) via a three-piece ligation. The resultant vectors, pXZL967 and pXZL983, carried deletions in emrE and emrD respectively, as confirmed by restriction analysis and nucleotide sequencing. Digestion of plasmids pXZL967 and pXZL983, with BamHI and SalI released fragments carrying the PCR-generated deletions of emrE (246 bp in-frame deletion), and emrD (1101 bp in-frame deletion), respectively, which were then cloned into BamHI-SalI-restricted pK03, yielding pXZL975, pXZL987, and pXZL1024 (selected on chloramphenicol (30 μg/ml)-containing LB agar at 30° C.). […]

With CC[n+]1c(-c2ccccc2)c2cc(N)ccc2c2ccc(N)cc21 [ethidium bromide] the “fold increase in MIC values (more susceptible)” value was 32 fold.
